Tests used:
RAW264.7 [1] = assay: Antiinflammatory activity in mouse RAW264.7 cells assessed as inhibition of LPS-induced PGE2 production incubated for 1 hr prior to LPS challenge measured after 24 hrs by EIA; format: functional, cell-based
RAW264.7 [2] = assay: Cytotoxicity against mouse RAW264.7 cells assessed as cell viability after 24 hrs by MTT assay; format: cell-based; conditions: RAW264.7, 24 h
RAW264.7 [3] = assay: Antiinflammatory activity in mouse RAW264.7 cells assessed as inhibition of LPS-induced nitrite production after 24 hrs by Griess assay; format: functional, cell-based; conditions: RAW264.7, 24 h

Row | IC50 (RAW264.7 [1]) | IC50 (RAW264.7 [3]) | Structure (SMILES) | IC50 (RAW264.7 [2])
1 | 15.2 µM | > 100 µM | COC(=O)n1cc(CC#N)c2ccc(O)cc21 | 339 µM
2 | > 100 µM | > 100 µM | COC(=O)Cn1cc(CC#N)c2ccc(O)cc21 | > 400 µM
3 | 6.22 µM | 39.8 µM | Cn1cc(CC#N)c2cccc(O)c21 | > 400 µM
4 | 41.3 µM | 82.1 µM | CC(=O)n1cc(CC#N)c2ccc(O)cc21 | > 400 µM
5 | 11.7 µM | 80.1 µM | Cn1cc(CC#N)c2ccc(O)cc21 | 372 µM
6 | 16 µM | 57.1 µM | Cn1cc(CC#N)c2c(O)cccc21 | > 400 µM
7 | 57.7 µM | > 100 µM | Cn1cc(CC#N)c2cc(O)ccc21 | 325 µM

Further lines, the compound ahead of its results:

Row | Structure (SMILES) | IC50 (RAW264.7 [1]) | IC50 (RAW264.7 [3]) | IC50 (RAW264.7 [2])
8 | N#CCc1c[nH]c2ccc(OCc3ccccc3)cc12 | > 25 µM | 19.4 µM | 82.7 µM
9 | COc1ccc2c(CC#N)c[nH]c2c1 | 83.6 µM | > 100 µM | 161 µM
10 | N#CCc1c[nH]c2c(OCc3ccccc3)cccc12 | 73.1 µM | 48.7 µM | > 400 µM
11 | N#CCc1c[nH]c2cccc(OCc3ccccc3)c12 | 32.4 µM | 45.6 µM | 105 µM
12 | N#CCc1c[nH]c2cc(OCc3ccccc3)ccc12 | > 25 µM | 20.4 µM | 53.2 µM
13 | COc1cccc2c(CC#N)c[nH]c12 | > 100 µM | > 100 µM | > 400 µM
14 | COc1ccc2[nH]cc(CC#N)c2c1 | > 100 µM | > 100 µM | 99.6 µM
15 | COc1cccc2[nH]cc(CC#N)c12 [ARVELEXIN] | 13.9 µM | 83.6 µM | 207 µM

— ChEMBL document CHEMBL2375350, “Synthesis of indolyl-3-acetonitrile derivatives and their inhibitory effects on nitric oxide and PGE2 productions in LPS-induced RAW 264.7 cells” (Bioorg Med Chem Lett, 2013)
